This is an account of results in ChEMBL document CHEMBL1126386, “-alkoxyphenol leukotriene B4 receptor antagonists: effect of a chroman carboxylic acid” (Bioorg Med Chem Lett, 1992).

One assay concerns Cavia porcellus. Briefly: Compound was tested for antagonizing effect of LTB4-induced gas trapping in the guinea pig when administered intravenously. It is filed as functional. Particulars: iv.
The next assay concerns the target Leukotriene B4 receptor (Homo sapiens, UniProt Q9NPC1+Q15722). Briefly: Inhibition of LTB4-induced CD11b/CD18 integrin up-regulation in human neutrophils. Format: functional.

Compound `CCCc1c(OCCCOc2cc(O)c(OCC)cc2CC)ccc2c1OC(C(=O)O)CC2` (configuration not stated) yielded an ED50 in the assay with Cavia porcellus of 0.012 mg/kg. The IC50 against Leukotriene B4 receptor is listed as 195 nM.
